These results are taken from publication PMC9404985, “Development of Dicationic Bisguanidine-Arylfuran Derivatives as Potent Agents against Gram-Negative Bacteria” (Antibiotics, 2022).

One series deals with Plasmodium falciparum. Also noted: method as in PMID 28674055. Conditions: erythrocyte stage; cited from earlier work.
Series [1] can be described thus: Cytotoxicity assay (PrestoBlue) MCF-7. It is filed as cell-based. As to conditions: human, MCF-7 cells (breast cancer cell line), 24 h incubation.
Series [2] concerns P. caledonica (NBRC/ATCC #102488). Description: Antibacterial resazurin assay, laboratory strain. As to conditions: for EC50 / EC90: Paraburkholderia caledonica, ATCC102488, 18 h; for EC50: read-out: Pcal EC50; for EC90: read-out: Pcal EC90; for Selectivity index P. caledonica: mean of MCF-7 and HepG2 EC50 over bacterial EC50, laboratory strain. (In general: Alamar Blue is a resazurin reagent that responds to reducing activity.)

The test system of series [3] is A. baumannii (CCUG #57035). Put plainly: Antibacterial activity against isolates (Omnilog, Biolog redox dye). It counts as cell-based, Acinetobacter baumannii. As to conditions: for EC50 / EC90: Acinetobacter baumannii, CCUG57035, ca-MH broth, 24 h, 37 °C. The protocol:
(§1) The antibacterial activities of eight compounds (1, 3, 4, 6, 8, 10, 16, and 17) were tested against 10 different isolates of Gram-negative bacteria from human and other sources, two E. coli (CCUG #67180 and CCUG #17620/ATCC #25922, control strain), two K. pneumoniae (CCUG #58547 and CCUG #225T), two P. aeruginosa (CCUG #17619 and CCUG #59347), two A. baumannii (CCUG #57035 and CCUG #57250), E. cloacae (CCUG #6323T), and E. hormaechei (CCUG #58962) in a 96-well plate format. […] Bacterial mass from the ten isolates grown overnight on horse blood or Mueller–Hinton agar plates was suspended in ca-MH and adjusted to a final inoculum cell density of ~5 × 10^5 CFU/mL. For all assays, Biolog redox dye A diluted 100× from the stock solution was used for measurements of all ten isolates (up to a total volume of 120 µL per well). All plates included one well per isolate with only inoculum and dye but no test compound (i.e., positive control) and one well per isolate with inoculum, dye and DMSO diluted 1667×, corresponding to the DMSO concentration in the wells with the highest concentration of test compound. All measurements were performed using the Omnilog microplate reader (Biolog, Hayward, CA, USA) where the 96-well plates were read at 15 min intervals for a total of 24 h at 37 °C.

The test system of a further series is Trypanosoma cruzi. Also noted: method as in earlier work. Conditions: PubChem AID 1314398; read-out: effective against Trypanosoma cruzi; cited from earlier work.
The subject of series [4] is A. baumannii (CCUG #57250). Description: Antibacterial activity against isolates (Omnilog, Biolog redox dye). It counts as cell-based, Acinetobacter baumannii. Conditions: for EC90 / EC50: ca-MH broth, 24 h, 37 °C; for EC50: CCUG57250. As for the experimental part:
(§2) The antibacterial activities of eight compounds (1, 3, 4, 6, 8, 10, 16, and 17) were tested against 10 different isolates of Gram-negative bacteria from human and other sources, two E. coli (CCUG #67180 and CCUG #17620/ATCC #25922, control strain), two K. pneumoniae (CCUG #58547 and CCUG #225T), two P. aeruginosa (CCUG #17619 and CCUG #59347), two A. baumannii (CCUG #57035 and CCUG #57250), E. cloacae (CCUG #6323T), and E. hormaechei (CCUG #58962) in a 96-well plate format. The compounds to test were 3-fold diluted in six steps in cation-adjusted Mueller-Hinton (ca-MH) broth to final concentrations spanning from 30 to 0.12 µM, i.e., a 1667–416,667 times dilution from the 50 mM stocks. Bacterial mass from the ten isolates grown overnight on horse blood or Mueller–Hinton agar plates was suspended in ca-MH and adjusted to a final inoculum cell density of ~5 × 10^5 CFU/mL. For all assays, Biolog redox dye A diluted 100× from the stock solution was used for measurements of all ten isolates (up to a total volume of 120 µL per well). All plates included one well per isolate with only inoculum and dye but no test compound (i.e., positive control) and one well per isolate with inoculum, dye and DMSO diluted 1667×, corresponding to the DMSO concentration in the wells with the highest concentration of test compound. All measurements were performed using the Omnilog microplate reader (Biolog, Hayward, CA, USA) where the 96-well plates were read at 15 min intervals for a total of 24 h at 37 °C.

In series [5] the test system is E. coli (CCUG #17620/ ATCC #25922). The description is as above. Conditions: for EC50 / EC90: Escherichia coli, ca-MH broth, 24 h, 37 °C; for Selectivity index E. coli (CCUG #17620/ ATCC #25922): SI = ((EC50 MCF-7 + EC50 HepG2)/2)/EC50 bacterial strain. It counts as cell-based, Escherichia coli. As for the experimental part: as §2
The next series relates to E. coli (CCUG #67180). The series is described as above. It is filed as cell-based, Escherichia coli. Conditions: for EC90 / EC50: Escherichia coli, ca-MH broth, 24 h, 37 °C; for EC90: CCUG67180, 24 h; for EC50: CCUG67180; for Selectivity index E. coli (CCUG #67180): SI = ((EC50 MCF-7 + EC50 HepG2)/2)/EC50 bacterial strain. As for the experimental part:
as §2

Series [6] has as its system E. hormaechei (CCUG #58962). Described as above. Conditions: for EC50 / EC90: Enterobacter hormaechei, CCUG58962, ca-MH broth, 24 h, 37 °C; for Selectivity index E. hormaechei (CCUG #58962): SI = ((EC50 MCF-7 + EC50 HepG2)/2)/EC50 bacterial strain. It counts as cell-based, Enterobacter hormaechei. The protocol:
as §1

The test system of series [7] is P. aeruginosa (CCUG #17619). The series is described as above. It is filed as cell-based, Pseudomonas aeruginosa. As to conditions: for EC50 / EC90: Pseudomonas aeruginosa, CCUG17619, ca-MH broth, 24 h, 37 °C; for Selectivity index P. aeruginosa (CCUG #17619): SI = ((EC50 MCF-7 + EC50 HepG2)/2)/EC50 bacterial strain. The protocol:
as §2

[8] abbreviates: SI = ((EC50 MCF-7 + EC50 HepG2)/2)/EC50 bacterial strain.
Where [9] appears, read: Acinetobacter baumannii, CCUG57250, 24 h.

A word on the EC90: it is the concentration at which the effect reaches the 90% level. Take `N=C(N)Nc1ccc(-c2ccc(-c3ccc(NC(=N)N)cc3Cl)o2)c(Cl)c1` [Compound 1, 2,5-Bis(2-chloro-4-guanidinophenyl)furan]: the EC50 is 0.59 µM in the series with Plasmodium falciparum; 20.3 µM in series [2]; 4.7 µM in [3]; 0.29 µM in the series with Trypanosoma cruzi; 4.4 µM in [4] (Acinetobacter baumannii); 3.9 µM in [5]. Further, the figures for the EC50 (with E. coli (CCUG #67180); in [6]; in series [7]) were 3.2 µM, 7.7 µM and 4.8 µM, respectively. Besides, the EC50 at 24 h in [1] was found to be 34.4 µM. Also, the EC90 in series [2] worked out at 136 µM; in series [3], 6.3 µM; in series [4] (setting [9]), 6.6 µM; in [5], 6.3 µM; with E. coli (CCUG #67180), 3.8 µM; in [6] it was 9.1 µM. Moreover, the EC90 in [7] was 6.7 µM. For the same compound, the “Selectivity index P. caledonica” value in series [2] was 1.9. In addition, the “Selectivity index A. baumannii (CCUG #57035)” value in [3] (setting [8]) is 8.3. Further, in [4] (setting [8]), the “Selectivity index A. baumannii (CCUG #57250)” value is on record as 8.7. Moreover, the “Selectivity index E. coli (CCUG #17620/ ATCC #25922)” value in series [5] is reported as 9.9. In the series with E. coli (CCUG #67180), the “Selectivity index E. coli (CCUG #67180)” value worked out at 12.2. Further, the “Selectivity index E. hormaechei (CCUG #58962)” value in series [6] stood at 5.0. For the same compound, in series [7], the “Selectivity index P. aeruginosa (CCUG #17619)” value came to 8.1.
Consider `N=C(N)NCc1ccc(-c2ccc(-c3ccc(CNC(=N)N)cc3)o2)cc1` [Compound 10, 2,5-Bis(4-guanidinomethylphenyl)furan], for which, in [1], the EC50 at 24 h amounted to 48.6 µM. The EC50 in series [2] is 2.9 µM; in series [3], above 200 µM; in series [4] (Acinetobacter baumannii) it was above 200 µM; in [5] it was 151 µM; in the series on E. coli (CCUG #67180) it was 188 µM; in series [6], above 200 µM. The same compound had an EC50 in [7] above 200 µM. In addition, the EC90 in [2] is 5 µM; in [3] it was above 200 µM; in series [4] (setting [9]), above 200 µM; in [5] it was 179 µM; in the series with E. coli (CCUG #67180), above 200 µM; in [6] it was above 200 µM. The compound further registered a concentration for an effect of 90% (EC90) in [7] above 200 µM. Moreover, the “Selectivity index P. caledonica” value in series [2] is recorded as 31.8. In series [5], the “Selectivity index E. coli (CCUG #17620/ ATCC #25922)” value is recorded as 0.6. In addition, the “Selectivity index E. coli (CCUG #67180)” value in the series with E. coli (CCUG #67180) came out at 0.5.
`N=C(N)Nc1ccc(-c2ccc(-c3ccc(NC(=N)N)cc3)o2)cc1` [Compound 3]: the EC50 at 24 h in series [1] was determined as 64.5 µM. Besides, the EC50 in series [2] came out at 4.5 µM; in series [3], 1.6 µM; in [4] (Acinetobacter baumannii) it was 1.7 µM; in series [5], 1.6 µM; in the series on E. coli (CCUG #67180) it was 5.3 µM; in [6], 7.6 µM. For the same compound, the EC50 in [7] came to 9 µM. The EC90 is 18.9 µM in [2]; 2.4 µM in [3]; 2.4 µM in series [4] (setting [9]); 2.3 µM in series [4]; 2.2 µM in series [5]; 9.1 µM in [6]. The EC90 in series [7] was determined as 11.1 µM. Moreover, the “Selectivity index P. caledonica” value in [2] is given as 27.4. Also, the “Selectivity index E. coli (CCUG #17620/ ATCC #25922)” value in series [5] came to 76.6. Moreover, the “Selectivity index E. coli (CCUG #67180)” value with E. coli (CCUG #67180) is 23.7. For the same compound, the “Selectivity index E. hormaechei (CCUG #58962)” value in series [6] turned out to be 16.4. Besides, the “Selectivity index P. aeruginosa (CCUG #17619)” value in series [7] worked out at 13.8.
